The values that follow come from PMC7343540 (Journal of the American Chemical Society, 2020).

Experiment [1] has as its target T1, AsqJ (Aspergillus nidulans, UniProt Q5AR53). The experiment in a line: EPR titration of Mn2+-loaded AsqJ. Type of experiment: binding.
In experiment [2] the target is T1, AsqJ. The experiment is described as follows: X-ray crystal structure. The following applies: Fe, 2OG; formed in crystal from 1-H with 1 mM ascorbate and O2, 1.63 Å. Type of experiment: binding.

SMILES strings stand for the structures.

T1 sequence (Q5AR53 109-416): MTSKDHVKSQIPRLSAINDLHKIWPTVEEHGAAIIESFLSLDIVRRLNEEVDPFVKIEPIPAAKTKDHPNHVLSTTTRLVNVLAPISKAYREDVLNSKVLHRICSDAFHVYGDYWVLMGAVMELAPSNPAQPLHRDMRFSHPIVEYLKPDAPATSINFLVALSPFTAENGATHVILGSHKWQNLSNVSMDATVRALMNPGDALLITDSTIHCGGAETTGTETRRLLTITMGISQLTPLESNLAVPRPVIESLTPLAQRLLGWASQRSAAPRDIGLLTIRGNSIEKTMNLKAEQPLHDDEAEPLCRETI

As to `CN1C(=O)c2ccccc2NC(=O)/C1=C/c1ccc(C(F)(F)F)cc1` [2-CF3], the Kd on AsqJ [1] is around 5 µM. In the case of `CN1C(=O)c2ccccc2NC(=O)[C@@]12O[C@H]2c1ccccc1` [3-H, cyclopenin], the X-ray crystal structure entry on AsqJ [2] is “revealed the presence of 3-H, and 2OG in the active site”.
